Assay results taken from patent US20250163059A1, “HETEROCYCLIC KINASE INHIBITORS” (Incyte Corporation, priority 2023, published 2025).

Key:
[1] = molecular target: T1, catalytic domain (JH1) of JAK2 protein (Homo sapiens, UniProt O60674); experiment: JAK2 (JH1) Enzymatic Assay at ATP=Km (30 μM), TR-FRET; format: biochemical; conditions: 30 μM ATP (=Km), 60 min at 25° C., read-out: V617F ENZ 30 μM
T1 construct: phosphorylated on the tyrosine residue by catalytic domain (JH1) of JAK2 protein; purchased BPS 40450
Experimental: Example A. JAK2 (JH1) Enzymatic Assay at ATP=Km (30 μM)
Inhibitor potency was determined in TR-FRET assay, which measures HTRF signal generated as a result of Eu-labeled anti-phosphotyrosine antibody binding to Biotin-labeled peptide, phosphorylated on the tyrosine residue by catalytic domain (JH1) of JAK2 protein in the presence of ATP-Mg and Allophycocyanin-streptavidin (APC-SA). JH1 domain of JAK2 protein was purchased from BPS (#40450), Eu-W1204-labeled Anti-Phosphotyrosine Antibody (PY-20) and SureLight Allophycocyanin-streptavidin were purchased from PerkinElmer (#AD0067 and #AD0201). Peptide Biot-EQEDEPEGDYFEWLEES-amide (SEQ ID NO.: 1) was purchased from Quality Controlled Biochemicals, MA (Q307-166). Assay buffer consisted of 50 mM Tris, pH=7.5, 10 mM MgCl2, 0.01% Brij-35, 0.1% BSA, 1 mM EGTA, 5% Glycerol and 5 mM DTT. To assess the inhibition of the enzymatic activity, compound was serially diluted in DMSO and a volume of 0.1 μL was transferred to the wells of a black regular volume 384-well plate (Greiner #781076) using Echo Liquid Handler (Labcyte Inc.). Positive and Negative control wells contained 0.1 μL of DMSO.
Enzyme (catalytic domain JH1 of JAK2) was diluted in assay buffer, and the Multidrop Combi liquid handler (Thermo Scientific) was used to dispense 10 μL to each well (except positive control wells, to which 10 μL of assay buffer were dispensed instead of protein).
Plate was centrifuged and reaction was started by addition of 10 μL of substrate solution containing biotinylated peptide and ATP to all wells. Plate was again centrifuged and enzymatic reaction was allowed to proceed for 60 min. at 25° C. Final concentrations in the assay were as follows: 0.02 nM protein, 30 uM ATP, 0.5 uM biotinylated peptide. Reaction was stopped by addition of 10 μL of solution, containing 45 mM EDTA, 144 nM APC/225 nM Streptavidin, and 4.5 nM Eu-Ab in detection buffer: 50 mM Tris, pH=7.8, 150 mM NaCl, 0.5 mg/ml BSA.
Plate was centrifuged and incubated for 30 min. at room temperature. HTRF signal was measured on PHERAstar plate reader instrument (BMG Labtech) with excitation at 337 nm and emissions at 620 nm and 665 nm. Data analysis tools integrated in Genedata Screener software were used to analyze the results. Raw data was normalized to percent of vehicle (DMSO) Negative control, after subtracting no-enzyme Positive inhibitor control. The IC50 values were derived by fitting the data to a four parameter logistic equation producing a sigmoidal dose-response curve using the following equation: Y=Bottom+(Top−Bottom)/(1+10^((Log IC50−X)*Hill slope)) where X is the logarithm of inhibitor concentration and Y is the response.

[2] = molecular target: T2, pseudo-kinase domain (JH2) of human V617F mutant JAK2 (Homo sapiens, UniProt O60674, F794H/V617F/W659A/W777A); experiment: JAK2 LanthaScreen JH2-V617F Binding Assay; conditions: 50 nM Fluorescent JAK2-JH2 Tracer, 1 hour at 25° C., read-out: JH2 BIND V617F
T2 construct: pseudo-kinase domain (JH2, amino-acids 536-812 with 3 surface mutations W659A, W777A, F794H); purchased BPS Bioscience 79498; host or cells: baculovirus expression system
Experimental: Example B. JAK2 LanthaScreen JH2-V617F Binding Assay
JAK2 JH2-V617F binding assay utilizes pseudo-kinase domain (JH2, amino-acids 536-812 with 3 surface mutations W659A, W777A, F794H) of human V617F mutant JAK2 expressed as C-terminal His-Avi-tagged, biotinylated protein in a baculovirus expression system (BPS Bioscience, Catalog #79498). The assay was conducted in black 384-well polystyrene plates in a final reaction volume of 20 μL. JAK2 JH2-V617F (0.26 nM) was incubated with compounds (100 nL serially diluted in DMSO) in the presence of 50 nM Fluorescent JAK2-JH2 Tracer (MedChem Express Catalog #HY-102055) and 0.25 nM Streptavidin-Tb cryptate (Cisbio Part #610SATLB) in assay buffer (50 mM Tris, pH=7.5, 10 mM MgCl2, 0.01% Brij-35, 0.1% BSA, 1 mM EGTA, 5% Glycerol and 5 mM DTT). Non-specific binding was accessed in the presence of 2 mM ATP. After incubation for 1 hour at 25° C., LanthaScreen signals were read on a PHERAstar FS plate reader (BMG LABTECH). Data was analyzed with IDBS XLfit and GraphPad Prism 5.0 software using a four parameter dose response curve to determine IC50 for each compound.

T1 sequence (O60674 849-1124 limits assumed): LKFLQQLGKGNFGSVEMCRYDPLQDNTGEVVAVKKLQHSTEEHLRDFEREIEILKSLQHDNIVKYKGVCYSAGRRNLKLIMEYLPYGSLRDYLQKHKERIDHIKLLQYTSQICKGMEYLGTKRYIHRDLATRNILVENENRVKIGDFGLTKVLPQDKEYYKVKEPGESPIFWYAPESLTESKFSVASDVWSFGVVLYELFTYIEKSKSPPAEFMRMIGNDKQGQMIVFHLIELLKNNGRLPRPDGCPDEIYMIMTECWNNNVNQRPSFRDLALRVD
T2 sequence (O60674 536-812 V617F/W659A/W777A/F794H): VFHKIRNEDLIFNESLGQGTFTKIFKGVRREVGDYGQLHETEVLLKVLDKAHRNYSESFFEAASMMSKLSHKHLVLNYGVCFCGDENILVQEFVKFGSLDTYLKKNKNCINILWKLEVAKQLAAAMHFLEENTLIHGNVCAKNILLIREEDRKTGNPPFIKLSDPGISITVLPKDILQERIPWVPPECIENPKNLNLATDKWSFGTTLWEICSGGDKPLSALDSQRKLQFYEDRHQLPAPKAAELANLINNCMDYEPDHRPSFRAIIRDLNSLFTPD

Structure (SMILES): CNc1ncc(-c2cccc(-c3cnn(C4CN(Cc5cccc(C(=O)N(C)C)n5)C4)c3)c2OC)c2cc(NC(=O)C3CC3)ncc12 [Example 1, 6-((3-(4-(3-(6-(Cyclopropanecarboxamido)-1-(methylamino)-2,7-naphthyridin-4-yl)-2-methoxyphenyl)-1H-pyrazol-1-yl)azetidin-1-yl)methyl)-N,N-dimethylpicolinamide]
- IC50 [1]: > 1000 nM
- IC50 [2]: ≤ 10 nM

Structure (SMILES): CNc1ncc(-c2cccc(-c3cnn(C4CN(Cc5cccc(C(=O)N(C)C6CC6)n5)C4)c3)c2OC)c2cc(NC(=O)C3CC3)ncc12 [Example 2, 6-((3-(4-(3-(6-(Cyclopropane-carboxamido)-1-(methylamino)-2,7-naphthyridin-4-yl)-2-methoxyphenyl)-1H-pyrazol-1-yl)azetidin-1-yl)methyl)-N-cyclopropyl-N-methyl-picolinamide]
- IC50 [1]: > 1000 nM
- IC50 [2]: ≤ 10 nM

Structure (SMILES): CNc1ncc(-c2cccc(-c3cnn(C4CN(Cc5cccc(C(=O)N(C)CC(F)(F)F)n5)C4)c3)c2OC)c2cc(NC(=O)C3CC3)ncc12 [Example 3, 6-((3-(4-(3-(6-(Cyclopropane-carboxamido)-1-(methylamino)-2,7-naphthyridin-4-yl)-2-methoxyphenyl)-1H-pyrazol-1-yl)azetidin-1-yl)methyl)-N-methyl-N-(2,2,2-trifluoroethyl) picolinamide]
- IC50 [1]: > 1000 nM
- IC50 [2]: ≤ 10 nM

Structure (SMILES): CNc1ncc(-c2cccc(-c3cnn(C4CN(Cc5cccc(C(=O)N6CCCC6)n5)C4)c3)c2OC)c2cc(NC(=O)C3CC3)ncc12 [Example 4, N-(5-(2-Methoxy-3-(1-(1-((6-(pyrrolidine-1-carbonyl)pyridin-2-yl)methyl)azetidin-3-yl)-1H-pyrazol-4-yl)phenyl)-8-(methylamino)-2,7-naphthyridin-3-yl)cyclopropane-carboxamide]
- IC50 [1]: > 1000 nM
- IC50 [2]: ≤ 10 nM

Structure (SMILES): CNc1ncc(-c2cccc(-c3cnn(C4CN(Cc5csc(C(=O)N(C)CC(F)(F)F)n5)C4)c3)c2OC)c2cc(NC(=O)C3CC3)ncc12 [Example 5, 4-((3-(4-(3-(6-(Cyclopropane-carboxamido)-1-(methylamino)-2,7-naphthyridin-4-yl)-2-methoxyphenyl)-1H-pyrazol-1-yl)azetidin-1-yl)methyl)-N-methyl-N-(2,2,2-trifluoroethyl) thiazole-2-carboxamide]
- IC50 [1]: > 1000 nM
- IC50 [2]: 10 to 100 nM

Structure (SMILES): CNc1ncc(-c2cccc(-c3cnn(C4CN(Cc5cccc(S(C)(=O)=O)n5)C4)c3)c2OC)c2cc(NC(=O)C3CC3)ncc12 [Example 6, N-(5-(2-Methoxy-3-(1-(1-((6-(methylsulfonyl)pyridin-2-yl)methyl)azetidin-3-yl)-1H-pyrazol-4-yl)phenyl)-8-(methylamino)-2,7-naphthyridin-3 yl)cyclopropane carboxamide]
- IC50 [1]: > 1000 nM
- IC50 [2]: ≤ 10 nM

Structure (SMILES): CNc1ncc(-c2cccc(-c3cnn(C4CN(Cc5cccc(C(F)F)n5)C4)c3)c2OC)c2cc(NC(=O)C3CC3)ncc12 [Example 7, N-(5-(3-(1-(1-((6-(Difluoromethyl)pyridin-2-yl)methyl)azetidin-3-yl)-1H-pyrazol-4-yl)-2-methoxyphenyl)-8-(methylamino)-2,7-naphthyridin-3-yl)cyclopropanecarboxamide]
- IC50 [1]: > 1000 nM
- IC50 [2]: ≤ 10 nM

Structure (SMILES): CNc1ncc(-c2cccc(-c3cnn(C4CN(C(=O)c5cccc(C(=O)N(C)C)n5)C4)c3)c2OC)c2cc(NC(=O)C3CC3)ncc12 [Example 8, 6-(3-(4-(3-(6-(Cyclopropanecarboxamido)-1-(methylamino)-2,7-naphthyridin-4-yl)-2-methoxyphenyl)-1H-pyrazol-1-yl)azetidine-1-carbonyl)-N,N-dimethylpicolinamide]
- IC50 [1]: > 1000 nM
- IC50 [2]: ≤ 10 nM

Structure (SMILES): CNc1ncc(-c2cccc(-c3cnn(C4CCN(Cc5ccccn5)CC4)c3)c2OC)c2cc(NC(=O)C3CC3)ncc12 [Example 9, N-(5-(2-Methoxy-3-(1-(1-(pyridin-2-ylmethyl)piperidin-4-yl)-1H-pyrazol-4-yl)phenyl)-8-(methylamino)-2,7-naphthyridin-3-yl)cyclopropanecarboxamide]
- IC50 [1]: > 1000 nM
- IC50 [2]: 10 to 100 nM

Structure (SMILES): CNc1ncc(-c2cccc(-c3cnn(C(C)C(=O)O)c3)c2OC)c2cc(NC(=O)C3CC3)ncc12 (stereo not drawn) [Example 10, 2-(4-(3-(6-(Cyclopropanecarboxamido)-1-(methylamino)-2,7-naphthyridin-4-yl)-2-methoxyphenyl)-1H-pyrazol-1-yl)propanoic acid]
- IC50 [1]: > 1000 nM
- IC50 [2]: 10 to 100 nM

Structure (SMILES): CNc1ncc(-c2cccc(-c3cnn(C4CN(Cc5cccc(C(=O)N(C)C)n5)C4)c3)c2OC)c2cc(NC(=O)C3CC3)nnc12 [Example 11, 6-((3-(4-(3-(3-(Cyclopropanecarboxamido)-8-(methylamino)pyrido[3,4-c]pyridazin-5-yl)-2-methoxyphenyl)-1H-pyrazol-1-yl)azetidin-1-yl)methyl)-N,N-dimethylpicolinamide]
- IC50 [1]: > 1000 nM
- IC50 [2]: ≤ 10 nM

Structure (SMILES): CNc1ncc(-c2cccc(-c3cnn(C4CN(Cc5cccc(C(=O)N(C)C6CC6)n5)C4)c3)c2OC)c2cc(NC(=O)C3CC3)nnc12 [Example 12, 6-((3-(4-(3-(3-(Cyclopropanecarboxamido)-8-(methylamino)pyrido[3,4-c]pyridazin-5-yl)-2-methoxyphenyl)-1H-pyrazol-1-yl)azetidin-1-yl)methyl)-N-cyclopropyl-N-methylpicolinamide]
- IC50 [1]: > 1000 nM
- IC50 [2]: ≤ 10 nM

Structure (SMILES): CNc1ncc(-c2cccc(-c3cnn(C4CN(Cc5cccc(C(=O)N(C)CC6CC6)n5)C4)c3)c2OC)c2cc(NC(=O)C3CC3)nnc12 [Example 13, 6-((3-(4-(3-(3-(Cyclopropane-carboxamido)-8-(methylamino)pyrido[3,4-c]pyridazin-5-yl)-2-methoxy-phenyl)-1H-pyrazol-1-yl)azetidin-1-yl)methyl)-N-(cyclopropyl-methyl)-N-methyl-picolinamide]
- IC50 [1]: > 1000 nM
- IC50 [2]: ≤ 10 nM

Structure (SMILES): CNc1ncc(-c2cccc(-c3cnn(C4CN(Cc5cccc(C(=O)N(C)CC(F)(F)F)n5)C4)c3)c2OC)c2cc(NC(=O)C3CC3)nnc12 [Example 14, 6-((3-(4-(3-(3-(Cyclopropane-carboxamido)-8-(methylamino)pyrido[3,4-c]pyridazin-5-yl)-2-methoxy-phenyl)-1H-pyrazol-1-yl)azetidin-1-yl)methyl)-N-methyl-N-(2,2,2-trifluoroethyl) picolinamide]
- IC50 [1]: > 1000 nM
- IC50 [2]: ≤ 10 nM

Structure (SMILES): CNc1ncc(-c2cccc(-c3cnn(C4CN(Cc5cccc(C(=O)N6CCCC6)n5)C4)c3)c2OC)c2cc(NC(=O)C3CC3)nnc12 [Example 15, N-(5-(2-Methoxy-3-(1-(1-((6-(pyrrolidine-1-carbonyl)pyridin-2-yl)methyl)azetidin-3-yl)-1H-pyrazol-4-yl)phenyl)-8-(methylamino)pyrido[3,4-c]pyridazin-3-yl)cyclopropane-carboxamide]
- IC50 [1]: > 1000 nM
- IC50 [2]: ≤ 10 nM
